# Target: T1, C5AR1 (Homo sapiens, UniProt P21730)
# T1 construct: host or cells: CHO-K1
# T1 sequence (P21730 1-350): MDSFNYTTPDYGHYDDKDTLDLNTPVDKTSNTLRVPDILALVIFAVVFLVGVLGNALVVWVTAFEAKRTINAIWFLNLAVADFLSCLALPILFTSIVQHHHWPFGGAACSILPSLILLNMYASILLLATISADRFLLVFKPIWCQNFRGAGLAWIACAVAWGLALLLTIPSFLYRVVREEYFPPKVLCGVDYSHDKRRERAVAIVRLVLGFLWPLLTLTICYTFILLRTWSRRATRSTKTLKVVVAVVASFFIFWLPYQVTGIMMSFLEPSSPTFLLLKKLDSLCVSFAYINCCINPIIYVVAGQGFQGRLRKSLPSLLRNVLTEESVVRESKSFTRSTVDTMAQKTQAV
# Assay: In vitro assay: antagonism of C5a-induced beta-arrestin recruitment (PathHunter) in CHO-K1 C5AR1 beta-arrestin cell line
# Type: cell-based
# Settings: antagonistic activity, 1-10 nM C5a agonist, geometric mean where several measurements, read-out: C5aR IC50
# Experimental: 5 μl Antagonist at 6-fold end concentration or DMSO control is added to assay medium and subsequently 5 μl 1-10 nM C5a agonist at 6 fold end concentration. Cells are centrifuged for 1 min at 1000 rpm and incubated for 1.5 hour in at 37° C. Plates are equilibrated at room temperature for several minutes before adding 12 μl/well Detection Reagent (PathHunter Detection Kit, DiscoverX, Cat #93-0001). Plates are centrifuged for 1 min at 1000 rpm and incubated for 45 minutes at RT before being measured on a Fluostar Optima, BMG Labtech. IC50 values are calculated from a serial dilution range of antagonist using inhouse software and given in nmol/l.
# The calculated IC50 values may fluctuate depending on the daily cellular assay performance. Fluctuations of this kind are known to those skilled in the art. Average IC50 values from several measurements are given as geometric mean values.
row,IC50,SMILES
1,19 nM,"Cc1cccc(C)c1N1CCC(N2Cc3cn(C)nc3N(Cc3ccccc3C(F)(F)F)C2=O)C1 (single isomer, unassigned) [Example 57]"
2,238 nM,"Cc1cccc(C)c1N1CCC(N2Cc3cn(C)nc3N(Cc3ccccc3C(F)(F)F)C2=O)C1 (single isomer, unassigned) [Example 58]"
3,10 nM,"Cc1cccc(F)c1N1CCC(N2Cc3cn(CC(C)F)nc3N(Cc3ccccc3C(F)(F)F)C2=O)CC1 (single isomer, unassigned) [Example 185]"
4,8 nM,"Cc1cccc(F)c1N1CCC(N2Cc3cn(CC(C)F)nc3N(Cc3ccccc3C(F)(F)F)C2=O)CC1 (single isomer, unassigned) [Example 186]"
5,13 nM,"Cc1cccc(F)c1N1CCC(N2Cc3cn(C(C)C(F)F)nc3N(Cc3ccccc3C(F)(F)F)C2=O)CC1 (single isomer, unassigned) [Example 187]"
6,10 nM,"Cc1cccc(F)c1N1CCC(N2Cc3cn(C(C)C(F)F)nc3N(Cc3ccccc3C(F)(F)F)C2=O)CC1 (single isomer, unassigned) [Example 188]"
7,10 nM,"Cc1cccc(F)c1N1CCC(N2Cc3cn(CC4CC4(F)F)nc3N(Cc3ccccc3C(F)(F)F)C2=O)CC1 (single isomer, unassigned) [Example 189]"
8,11 nM,"Cc1cccc(F)c1N1CCC(N2Cc3cn(CC4CC4(F)F)nc3N(Cc3ccccc3C(F)(F)F)C2=O)CC1 (single isomer, unassigned) [Example 190]"
9,919 nM,"Cc1cccc(F)c1N1CCC(N2C(=O)N(Cc3ccccc3C(F)(F)F)c3cn(C)nc3C2C)CC1 (single isomer, unassigned) [Example 202]"
10,74 nM,"Cc1cccc(F)c1N1CCC(N2C(=O)N(Cc3ccccc3C(F)(F)F)c3cn(C)nc3C2C)CC1 (single isomer, unassigned) [Example 203]"
11,8 nM,"Cc1cccc(F)c1N1CCC(N2C(=O)N(Cc3ccccc3C(F)(F)F)c3nn(C)cc3C2C)CC1 (single isomer, unassigned) [Example 220]"
12,77 nM,"Cc1cccc(F)c1N1CCC(N2C(=O)N(Cc3ccccc3C(F)(F)F)c3nn(C)cc3C2C)CC1 (single isomer, unassigned) [Example 221]"
13,34 nM,"Cc1cccc(F)c1N1CCCC(N2Cc3cn(C)nc3N(Cc3ccccc3C(F)(F)F)C2=O)CC1 (single isomer, unassigned) [Example 225]"
14,24 nM,"Cc1cccc(F)c1N1CCCC(N2Cc3cn(C)nc3N(Cc3ccccc3C(F)(F)F)C2=O)CC1 (single isomer, unassigned) [Example 226]"
15,109 nM,"Cc1cccc(F)c1N1CCC(C)(N2Cc3cn(C)nc3N(Cc3ccccc3C(F)(F)F)C2=O)C1 (single isomer, unassigned) [Example 234]"
16,169 nM,"Cc1cccc(F)c1N1CCC(C)(N2Cc3cn(C)nc3N(Cc3ccccc3C(F)(F)F)C2=O)C1 (single isomer, unassigned) [Example 235]"
17,112 nM,"Cc1cccc(F)c1N1CCCC(N2Cc3cn(C)nc3N(Cc3ccccc3C(F)(F)F)C2=O)C1 (single isomer, unassigned) [Example 241]"
18,628 nM,"Cc1cccc(F)c1N1CCCC(N2Cc3cn(C)nc3N(Cc3ccccc3C(F)(F)F)C2=O)C1 (single isomer, unassigned) [Example 242]"
19,21 nM,"Cc1cccc(F)c1N1CCC(N2Cc3cn(C)nc3N(C(C)c3ccccc3C(F)(F)F)C2=O)CC1 (single isomer, unassigned) [Example 246]"
20,21 nM,"Cc1cccc(F)c1N1CCC(N2Cc3cn(C)nc3N(C(C)c3ccccc3C(F)(F)F)C2=O)CC1 (single isomer, unassigned) [Example 247]"
21,16 nM,"Cc1cccc(F)c1N1CCC(N2C(=O)N(Cc3ccccc3C(F)(F)F)c3cn(CC(C)(F)F)nc3C2C)CC1 (single isomer, unassigned) [Example 253]"
22,192 nM,"Cc1cccc(F)c1N1CCC(N2C(=O)N(Cc3ccccc3C(F)(F)F)c3cn(CC(C)(F)F)nc3C2C)CC1 (single isomer, unassigned) [Example 254]"
23,87 nM,"Cc1cccc(F)c1N1CCC(N2C(=O)N(Cc3ccccc3C(F)(F)F)c3cnn(CC(C)(F)F)c3C2C)CC1 (single isomer, unassigned) [Example 255]"
24,570 nM,"Cc1cccc(F)c1N1CCC(N2C(=O)N(Cc3ccccc3C(F)(F)F)c3cnn(CC(C)(F)F)c3C2C)CC1 (single isomer, unassigned) [Example 256]"
25,580 nM,"Cc1cccc(F)c1N1CCC(N2Cc3nn(C)cc3N(C(C)c3ccccc3C(F)(F)F)C2=O)CC1 (single isomer, unassigned) [Example 261]"

row,IC50,SMILES
1,472 nM,"Cc1cccc(F)c1N1CCC(N2Cc3nn(C)cc3N(C(C)c3ccccc3C(F)(F)F)C2=O)CC1 (single isomer, unassigned) [Example 262]"
2,21 nM,"Cc1cccc(F)c1N1CCC(N2C(=O)N(Cc3ccccc3C(F)(F)F)c3c[nH]nc3C2C)CC1 (single isomer, unassigned) [Example 263]"
3,12 nM,"Cc1cccc(F)c1N1CCC(N2C(=O)N(Cc3ccccc3C(F)(F)F)c3cn(C4CC4)nc3C2C)CC1 (single isomer, unassigned) [Example 265]"
4,356 nM,"Cc1cccc(F)c1N1CCC(N2C(=O)N(Cc3ccccc3C(F)(F)F)c3cn(C4CC4)nc3C2C)CC1 (single isomer, unassigned) [Example 266]"
5,37 nM,"COc1nccc(C)c1N1CCC(N2C(=O)N(Cc3ccccc3C3CC3)c3c[nH]nc3C2C)CC1 (single isomer, unassigned) [Example 274]"
6,20 nM,"Cc1cccc(F)c1N1CCC(N2C(=O)N(Cc3ccccc3C3CC3)c3c[nH]nc3C2C)CC1 (single isomer, unassigned) [Example 275]"
7,491 nM,"Cc1cccc(F)c1N1CCC(N2C(=O)N(Cc3ccccc3C3CC3)c3cn(CC(C)(F)F)nc3C2C)CC1 (single isomer, unassigned) [Example 276]"
8,56 nM,"Cc1cccc(F)c1N1CCC(N2C(=O)N(Cc3ccccc3C3CC3)c3cn(CC(C)(F)F)nc3C2C)CC1 (single isomer, unassigned) [Example 277]"
9,492 nM,"Cc1cccc(F)c1N1CCC(N2C(=O)N(Cc3ccccc3C3CC3)c3cn(C4CC4)nc3C2C)CC1 (single isomer, unassigned) [Example 278]"
10,28 nM,"Cc1cccc(F)c1N1CCC(N2C(=O)N(Cc3ccccc3C3CC3)c3cn(C4CC4)nc3C2C)CC1 (single isomer, unassigned) [Example 279]"
11,33 nM,"COc1nccc(C)c1N1CCC(N2Cc3cn(C)nc3N(C(C)c3ccccc3C(F)(F)F)C2=O)CC1 (single isomer, unassigned) [Example 286]"
12,37 nM,"COc1nccc(C)c1N1CCC(N2Cc3cn(C)nc3N(C(C)c3ccccc3C(F)(F)F)C2=O)CC1 (single isomer, unassigned) [Example 287]"
13,75 nM,"CC(c1ccccc1C(F)(F)F)N1C(=O)N(C2CCN(c3c(F)cccc3C#N)CC2)Cc2cn(C)nc21 (single isomer, unassigned) [Example 288]"
14,55 nM,"CC(c1ccccc1C(F)(F)F)N1C(=O)N(C2CCN(c3c(F)cccc3C#N)CC2)Cc2cn(C)nc21 (single isomer, unassigned) [Example 289]"
15,351 nM,"CC(c1ccccc1C(F)(F)F)N1C(=O)N(C2CCN(c3c(F)cccc3F)CC2)Cc2cn(C)nc21 (single isomer, unassigned) [Example 290]"
16,116 nM,"CC(c1ccccc1C(F)(F)F)N1C(=O)N(C2CCN(c3c(F)cccc3F)CC2)Cc2cn(C)nc21 (single isomer, unassigned) [Example 291]"
17,515 nM,"COc1nccc(C)c1N1CCC(N2C(=O)N(Cc3ccccc3C3CC3)c3cn(C4CC4)nc3C2C)CC1 (single isomer, unassigned) [Example 292]"
18,20 nM,"COc1nccc(C)c1N1CCC(N2C(=O)N(Cc3ccccc3C3CC3)c3cn(C4CC4)nc3C2C)CC1 (single isomer, unassigned) [Example 293]"
19,25 nM,"COc1nccc(C)c1N1CCC(N2C(=O)N(Cc3ccccc3C(F)(F)F)c3c[nH]nc3C2C)CC1 (single isomer, unassigned) [Example 295]"
20,15 nM,"COc1nccc(C)c1N1CCC(N2C(=O)N(Cc3ccccc3C(F)(F)F)c3cn(C4CC4)nc3C2C)CC1 (single isomer, unassigned) [Example 296]"
21,326 nM,"COc1nccc(C)c1N1CCC(N2C(=O)N(Cc3ccccc3C(F)(F)F)c3cn(C4CC4)nc3C2C)CC1 (single isomer, unassigned) [Example 297]"
22,29 nM,"COc1nccc(C)c1N1CCC(N2C(=O)N(Cc3ccccc3C(F)(F)F)c3cn(C)nc3C2C)CC1 (single isomer, unassigned) [Example 298]"
23,16 nM,"Cc1cccc(F)c1N1CCC(N2C(=O)N(Cc3ccccc3C(F)(F)F)c3nn(CC(C)(F)F)cc3C2C)CC1 (single isomer, unassigned) [Example 305]"
24,285 nM,"Cc1cccc(F)c1N1CCC(N2C(=O)N(Cc3ccccc3C(F)(F)F)c3nn(CC(C)(F)F)cc3C2C)CC1 (single isomer, unassigned) [Example 306]"

# Source: patent publication US11608341B2, “Substituted tetrahydropyrazolo[3,4-d]pyrimidines and tetrahydropyrazolo[4,3-d]pyrimidines as C5A receptor modulators” (Idorsia Pharmaceuticals Ltd., priority 2018, dated 2023)
